pEC50, pIC50, pKi: −log10 of the molar value. Values belong to the compound of their own block, whether it stands above or below them. Calls of active or inactive are those of the source. No cut-off for these calls is given here.
How the values were obtained:
[1] = system: Rattus norvegicus; assay: Inhibition of RAMH-induced dipsogenia in rat at 1 mg/kg, ip; format: functional, organism-based; design: dose 1 mg/kg
[2] = target: T1, Cytochrome P450 1A2 (Homo sapiens, UniProt P05177); assay: (§1) Inhibition of CYP1A2; format: ADME
T1 sequence (P05177 whole entry): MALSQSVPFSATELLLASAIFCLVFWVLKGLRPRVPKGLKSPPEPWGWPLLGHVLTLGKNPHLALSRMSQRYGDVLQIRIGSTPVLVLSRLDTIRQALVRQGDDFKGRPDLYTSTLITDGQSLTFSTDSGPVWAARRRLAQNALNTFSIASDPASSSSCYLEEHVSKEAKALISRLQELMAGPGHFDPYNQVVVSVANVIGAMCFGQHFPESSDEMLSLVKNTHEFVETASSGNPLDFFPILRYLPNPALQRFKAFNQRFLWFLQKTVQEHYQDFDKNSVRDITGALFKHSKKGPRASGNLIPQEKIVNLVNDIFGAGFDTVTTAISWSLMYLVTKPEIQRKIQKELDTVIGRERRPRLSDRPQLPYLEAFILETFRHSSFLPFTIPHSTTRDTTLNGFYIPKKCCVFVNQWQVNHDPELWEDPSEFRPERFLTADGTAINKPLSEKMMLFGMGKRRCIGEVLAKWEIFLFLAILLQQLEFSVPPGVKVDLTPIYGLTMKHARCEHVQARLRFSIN

[3] = target: Cytochrome P450 2C9 (Homo sapiens, UniProt P11712); assay: (§2) Inhibition of CYP2C9; format: ADME
Sequence of Cytochrome P450 2C9 (P11712 whole entry): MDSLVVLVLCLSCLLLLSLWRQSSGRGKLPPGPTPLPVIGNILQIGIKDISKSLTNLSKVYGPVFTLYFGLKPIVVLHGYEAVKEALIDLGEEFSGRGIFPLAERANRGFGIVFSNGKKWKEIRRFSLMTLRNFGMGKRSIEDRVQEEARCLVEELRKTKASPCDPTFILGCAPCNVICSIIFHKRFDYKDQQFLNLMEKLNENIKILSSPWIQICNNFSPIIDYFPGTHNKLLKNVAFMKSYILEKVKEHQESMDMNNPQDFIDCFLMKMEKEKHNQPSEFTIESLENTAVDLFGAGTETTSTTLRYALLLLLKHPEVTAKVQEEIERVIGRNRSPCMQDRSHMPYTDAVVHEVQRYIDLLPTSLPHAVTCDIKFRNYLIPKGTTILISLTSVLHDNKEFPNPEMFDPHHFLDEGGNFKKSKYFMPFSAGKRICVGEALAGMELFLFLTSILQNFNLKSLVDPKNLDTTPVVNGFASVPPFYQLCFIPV

[4] = target: Cytochrome P450 2C19 (Homo sapiens, UniProt P33261); assay: (§3) Inhibition of CYP2C19; format: ADME
Sequence of Cytochrome P450 2C19 (P33261 whole entry): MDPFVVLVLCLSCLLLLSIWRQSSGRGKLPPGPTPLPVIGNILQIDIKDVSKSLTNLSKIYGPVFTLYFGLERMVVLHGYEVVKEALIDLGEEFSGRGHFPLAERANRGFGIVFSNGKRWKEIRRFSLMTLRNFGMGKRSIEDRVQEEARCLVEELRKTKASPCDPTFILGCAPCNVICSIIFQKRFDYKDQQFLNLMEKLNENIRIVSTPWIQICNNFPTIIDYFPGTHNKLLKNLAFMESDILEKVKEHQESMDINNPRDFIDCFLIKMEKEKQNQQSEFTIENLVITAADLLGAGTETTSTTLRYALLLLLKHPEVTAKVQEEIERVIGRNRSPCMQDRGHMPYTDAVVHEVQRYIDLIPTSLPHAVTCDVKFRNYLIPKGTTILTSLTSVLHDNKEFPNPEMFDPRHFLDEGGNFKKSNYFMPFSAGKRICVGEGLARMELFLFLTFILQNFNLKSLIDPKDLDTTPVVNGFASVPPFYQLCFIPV

[5] = target: Cytochrome P450 2D6 (Homo sapiens, UniProt P10635); assay: (§4) Inhibition of CYP2D6; format: ADME
Sequence of Cytochrome P450 2D6 (P10635 whole entry): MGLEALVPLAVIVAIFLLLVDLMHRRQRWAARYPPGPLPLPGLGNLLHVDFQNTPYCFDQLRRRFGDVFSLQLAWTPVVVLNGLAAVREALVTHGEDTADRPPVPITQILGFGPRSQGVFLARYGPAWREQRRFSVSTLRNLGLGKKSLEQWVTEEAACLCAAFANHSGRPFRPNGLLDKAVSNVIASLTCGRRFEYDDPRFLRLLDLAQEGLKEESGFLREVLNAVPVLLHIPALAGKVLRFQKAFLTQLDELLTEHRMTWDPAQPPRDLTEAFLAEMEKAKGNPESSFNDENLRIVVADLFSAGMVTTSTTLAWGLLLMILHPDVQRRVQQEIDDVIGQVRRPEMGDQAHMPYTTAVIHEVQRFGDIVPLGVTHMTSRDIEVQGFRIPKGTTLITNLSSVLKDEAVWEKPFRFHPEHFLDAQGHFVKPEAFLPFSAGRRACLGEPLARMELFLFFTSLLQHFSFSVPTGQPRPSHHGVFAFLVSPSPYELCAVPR

[6] = target: Cytochrome P450 3A4 (Homo sapiens, UniProt P08684); assay: (§5) Inhibition of CYP3A4; format: ADME
Sequence of Cytochrome P450 3A4 (P08684 whole entry): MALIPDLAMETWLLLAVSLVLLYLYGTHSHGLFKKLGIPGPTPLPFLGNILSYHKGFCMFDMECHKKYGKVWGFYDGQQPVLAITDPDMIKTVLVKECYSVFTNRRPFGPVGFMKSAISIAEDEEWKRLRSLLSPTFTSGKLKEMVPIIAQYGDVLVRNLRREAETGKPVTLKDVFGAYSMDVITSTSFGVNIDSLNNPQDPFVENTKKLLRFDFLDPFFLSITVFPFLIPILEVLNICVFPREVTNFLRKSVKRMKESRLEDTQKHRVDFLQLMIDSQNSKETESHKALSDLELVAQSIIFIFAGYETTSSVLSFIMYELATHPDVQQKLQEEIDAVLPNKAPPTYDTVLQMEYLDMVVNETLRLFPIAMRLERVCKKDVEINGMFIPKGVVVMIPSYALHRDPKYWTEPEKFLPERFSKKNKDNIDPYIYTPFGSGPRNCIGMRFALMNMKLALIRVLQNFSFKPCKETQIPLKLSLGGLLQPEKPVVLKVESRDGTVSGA

[7] = target: T2, Histamine H3 receptor (Homo sapiens, UniProt Q9Y5N1); assay: Displacement of [3H]NAMH from human histamine H3 receptor expressed in CHO cells; format: cell-based
T2 sequence (Q9Y5N1 whole entry): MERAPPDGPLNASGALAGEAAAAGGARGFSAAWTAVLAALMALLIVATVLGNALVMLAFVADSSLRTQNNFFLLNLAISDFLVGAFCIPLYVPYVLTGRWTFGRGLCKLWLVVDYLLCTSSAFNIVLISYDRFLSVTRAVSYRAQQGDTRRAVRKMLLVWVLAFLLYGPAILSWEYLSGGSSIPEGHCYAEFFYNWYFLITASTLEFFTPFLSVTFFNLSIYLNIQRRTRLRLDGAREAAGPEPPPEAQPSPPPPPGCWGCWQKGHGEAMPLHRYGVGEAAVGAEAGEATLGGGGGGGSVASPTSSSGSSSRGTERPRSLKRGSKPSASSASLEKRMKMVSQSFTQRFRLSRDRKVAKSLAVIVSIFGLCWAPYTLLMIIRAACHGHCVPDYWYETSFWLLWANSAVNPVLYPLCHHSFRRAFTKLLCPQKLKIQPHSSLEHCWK

[8] = target: Histamine H3 receptor (Rattus norvegicus, UniProt Q9QYN8); assay: Displacement of [3H]NAMH from rat histamine H3 receptor expressed in CHO cells; format: cell-based
Sequence of Histamine H3 receptor (Rattus norvegicus, UniProt Q9QYN8) (Q9QYN8 whole entry): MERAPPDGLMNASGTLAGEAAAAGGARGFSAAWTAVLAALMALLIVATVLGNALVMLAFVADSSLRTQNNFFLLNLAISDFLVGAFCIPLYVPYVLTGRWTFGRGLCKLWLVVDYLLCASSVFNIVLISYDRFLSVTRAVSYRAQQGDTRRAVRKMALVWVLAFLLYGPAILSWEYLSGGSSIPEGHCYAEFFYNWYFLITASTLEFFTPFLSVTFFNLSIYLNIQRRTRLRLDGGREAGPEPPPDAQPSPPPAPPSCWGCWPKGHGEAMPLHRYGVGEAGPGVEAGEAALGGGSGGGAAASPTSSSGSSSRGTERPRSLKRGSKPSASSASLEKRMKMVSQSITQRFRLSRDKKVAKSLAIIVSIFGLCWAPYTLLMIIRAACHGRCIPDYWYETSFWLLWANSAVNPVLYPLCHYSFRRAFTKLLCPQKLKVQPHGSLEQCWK

[9] = Half life in rat at […], iv; format: ADME, organism-based; settings: in vivo
[10] = Volume of distribution in rat at […], iv; format: ADME, organism-based; settings: in vivo
[11] = Clearance in rat at […], iv; format: ADME, organism-based; settings: in vivo
[12] = AUC in rat at 5 mg/kg, po; format: ADME, organism-based; design: dose 5 mg/kg, route oral; settings: plasma
[13] = Cmax in rat at 5 mg/kg, po; format: ADME, organism-based; design: dose 5 mg/kg, route oral; settings: in vivo
[14] = Oral bioavailability in rat at 5 mg/kg; format: ADME, organism-based; settings: in vivo
[15] = Ratio of drug level in brain to plasma in rat at 5 mg/kg, po measured after 6 hrs; format: ADME, organism-based; design: dose 5 mg/kg, route oral; settings: read-out: BPR
[16] = target: T2, Histamine H3 receptor; assay: Antagonist activity at human histamine H3 receptor assessed as inhibition of [35S]-GTPgammaS binding; format: functional
[17] = target: T2, Histamine H3 receptor; assay: Inverse agonist activity at human histamine H3 receptor by [35S]-GTPgammaS binding assay; format: functional
[18] = system: Rattus norvegicus; assay: Wake promoting activity in EEG/EMG Sprague-Dawley rat model measured up to 4 hrs post dosing; format: functional, organism-based
[19] = system: Rattus norvegicus; assay: Wake promoting activity in EEG/EMG Sprague-Dawley rat model assessed as wake time at 10 mg/kg, ip measured up to 4 hrs (reference value: 85 +/- 9 mins); format: functional; settings: route intraperitoneal
[20] = system: Rattus norvegicus; assay: Wake promoting activity in EEG/EMG Sprague-Dawley rat model assessed as wake time at 30 mg/kg, ip measured up to 4 hrs (reference value: 85 +/- 9 mins); format: functional; settings: route intraperitoneal
[21] = system: Rattus norvegicus; assay: Wake promoting activity in EEG/EMG Sprague-Dawley rat model assessed as cumulative wake time at 30 mg/kg, ip measured after 5 hrs relative to control; format: functional; settings: route intraperitoneal
[22] = system: Rattus norvegicus; assay: Wake promoting activity in EEG/EMG Sprague-Dawley rat model assessed as sleep rebound at 10 to 30 mg/kg, ip; format: functional, organism-based
[23] = system: Rattus norvegicus; assay: Wake promoting activity in EEG/EMG Sprague-Dawley rat model assessed as maximal cumulative wake surplus time at 10 to 30 mg/kg, ip measured after 9 hrs; format: functional; settings: dose mg/kg 10-30; route intraperitoneal
[24] = system: Rattus norvegicus; assay: Wake promoting activity in EEG/EMG Sprague-Dawley rat model at 30 mg/kg, ip measured after 3.5 hrs relative to control; format: functional, organism-based; design: dose 30 mg/kg
[25] = Half life in mouse liver microsomes; format: ADME, Microsome
[26] = Half life in rat liver microsomes; format: ADME, Microsome
[27] = Half life in dog liver microsomes; format: ADME, Canis lupus familiaris, Microsome
[28] = Half life in human liver microsomes; format: ADME, Microsome
[29] = system: Rattus norvegicus; assay: Inhibition of RAMH-induced dipsogenia in ip dosed rat; format: functional
[30] = system: Rattus norvegicus; assay: Wake promoting activity in EEG/EMG Sprague-Dawley rat model at 30 mg/kg, ip measured after 4 hrs relative to vehicle-treated control; format: functional; settings: route intraperitoneal
[31] = Half life in monkey liver microsomes; format: ADME, Macaca mulatta, Microsome; settings: rhesus monkey
[32] = system: Rattus norvegicus; assay: Wake promoting activity in EEG/EMG Sprague-Dawley rat model at 10 to 30 mg/kg, ip measured after 9 hrs; format: functional, organism-based
[33] = target: Histamine H4 receptor (Homo sapiens) (UniProt Q9H3N8); assay: Inhibition of human histamine H4 receptor at 10 uM
[34] = system: Caco-2; assay: Permeability across human Caco2 cells; format: ADME, cell-based
[35] = target: Histamine H2 receptor (Homo sapiens) (UniProt P25021); assay: Inhibition of human histamine H2 receptor at 10 uM
Sequence of Histamine H2 receptor (Homo sapiens) (P25021 whole entry): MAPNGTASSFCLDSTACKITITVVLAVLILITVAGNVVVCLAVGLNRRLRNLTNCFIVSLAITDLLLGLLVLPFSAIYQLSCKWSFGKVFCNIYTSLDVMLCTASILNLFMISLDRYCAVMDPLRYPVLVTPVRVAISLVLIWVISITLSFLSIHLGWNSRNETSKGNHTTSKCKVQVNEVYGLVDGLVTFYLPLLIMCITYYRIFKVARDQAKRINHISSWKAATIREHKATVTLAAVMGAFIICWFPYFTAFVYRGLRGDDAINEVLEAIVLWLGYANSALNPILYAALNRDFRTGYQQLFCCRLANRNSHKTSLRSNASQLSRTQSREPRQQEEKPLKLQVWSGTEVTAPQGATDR

[36] = target: Histamine H1 receptor (Homo sapiens) (UniProt P35367); assay: Inhibition of human histamine H1 receptor at 10 uM
Sequence of Histamine H1 receptor (Homo sapiens) (P35367 whole entry): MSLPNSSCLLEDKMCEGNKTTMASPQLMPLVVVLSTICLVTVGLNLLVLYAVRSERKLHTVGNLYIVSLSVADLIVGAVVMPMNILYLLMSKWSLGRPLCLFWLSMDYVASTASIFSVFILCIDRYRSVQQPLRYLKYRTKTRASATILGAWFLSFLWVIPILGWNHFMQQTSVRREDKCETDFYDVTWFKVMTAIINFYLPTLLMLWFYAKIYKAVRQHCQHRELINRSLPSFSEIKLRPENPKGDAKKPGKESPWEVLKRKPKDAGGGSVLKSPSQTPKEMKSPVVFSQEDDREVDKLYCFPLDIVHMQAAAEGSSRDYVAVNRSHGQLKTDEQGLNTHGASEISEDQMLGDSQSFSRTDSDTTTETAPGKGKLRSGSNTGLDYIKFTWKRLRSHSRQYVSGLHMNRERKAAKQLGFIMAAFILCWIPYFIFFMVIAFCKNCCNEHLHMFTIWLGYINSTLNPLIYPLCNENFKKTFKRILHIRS

[37] = target: T3, CYP1A2 (Homo sapiens, UniProt P05177); assay: as §1; format: ADME
T3 sequence (P05177 whole entry): T1 sequence (P05177 whole entry)

[38] = target: CYP2C9 (Homo sapiens, UniProt P11712); assay: as §2; format: ADME
[39] = target: CYP2C19 (Homo sapiens, UniProt P33261); assay: as §3; format: ADME
[40] = target: CYP2D6 (Homo sapiens, UniProt P10635); assay: as §4; format: ADME
Sequence of CYP2D6 (P10635 whole entry): as the sequence (P10635 whole entry) above

[41] = target: CYP3A4 (Homo sapiens, UniProt P08684); assay: as §5; format: ADME
Sequence of CYP3A4 (P08684 whole entry): as the sequence (P08684 whole entry) above

[42] = target: hERG (KCNH2) (Homo sapiens, UniProt Q12809); assay: Inhibition of human ERG at 10 uM
Sequence of hERG (KCNH2) (Q12809 whole entry): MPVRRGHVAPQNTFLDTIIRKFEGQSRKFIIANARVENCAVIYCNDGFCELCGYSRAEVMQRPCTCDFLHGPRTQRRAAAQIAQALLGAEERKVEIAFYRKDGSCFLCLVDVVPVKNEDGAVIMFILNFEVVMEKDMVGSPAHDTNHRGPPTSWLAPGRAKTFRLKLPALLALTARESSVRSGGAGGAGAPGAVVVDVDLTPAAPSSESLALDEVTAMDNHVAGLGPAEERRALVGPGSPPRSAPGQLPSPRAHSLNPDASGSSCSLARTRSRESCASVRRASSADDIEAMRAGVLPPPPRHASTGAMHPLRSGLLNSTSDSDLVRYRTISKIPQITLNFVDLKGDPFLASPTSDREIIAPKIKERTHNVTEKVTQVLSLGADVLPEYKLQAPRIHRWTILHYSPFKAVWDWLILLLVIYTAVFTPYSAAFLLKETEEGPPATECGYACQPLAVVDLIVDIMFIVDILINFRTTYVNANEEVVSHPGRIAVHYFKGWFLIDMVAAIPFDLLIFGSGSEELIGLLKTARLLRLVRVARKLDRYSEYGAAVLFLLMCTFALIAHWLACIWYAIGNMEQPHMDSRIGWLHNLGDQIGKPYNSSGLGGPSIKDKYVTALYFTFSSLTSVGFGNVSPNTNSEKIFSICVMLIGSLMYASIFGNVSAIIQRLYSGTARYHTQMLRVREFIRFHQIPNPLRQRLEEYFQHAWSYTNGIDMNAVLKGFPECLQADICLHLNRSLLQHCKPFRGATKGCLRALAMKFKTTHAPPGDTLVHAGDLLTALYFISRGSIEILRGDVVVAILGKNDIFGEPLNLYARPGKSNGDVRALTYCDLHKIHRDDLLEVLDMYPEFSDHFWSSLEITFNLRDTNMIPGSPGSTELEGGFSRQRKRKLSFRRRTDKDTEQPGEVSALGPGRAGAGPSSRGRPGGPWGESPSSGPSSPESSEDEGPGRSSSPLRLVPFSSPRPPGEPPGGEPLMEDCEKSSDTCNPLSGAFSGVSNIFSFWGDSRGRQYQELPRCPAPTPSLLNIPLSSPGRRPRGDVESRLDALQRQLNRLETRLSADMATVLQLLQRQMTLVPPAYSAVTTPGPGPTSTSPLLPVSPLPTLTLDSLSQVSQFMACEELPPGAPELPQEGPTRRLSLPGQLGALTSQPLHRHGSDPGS

[43] = Plasma protein binding in rat; format: ADME, cell-free; settings: read-out: PPB
[44] = Plasma protein binding in human; format: ADME, cell-free; settings: read-out: PPB

pIC50 [2]: < 4.52
pIC50 [3]: < 4.52
pIC50 [4]: < 4.52
pIC50 [5]: < 4.52
pIC50 [6]: < 4.52
pKi [7]: 7.96
pKi [8]: 7.37
half-life [9]: 30 min
Vd [10]: 2.2 L/kg
clearance [11]: 53 mL/min/kg
AUC [12]: 266 ng·h/mL
Cmax [13]: 66 ng/mL
bioavailability [14]: 15%
Kp at 6 h [15]: 25
Kb [16]: 3.7 nM
pEC50 [17]: 8.74
SMILES: C[C@@H]1CCCN1CCCOc1ccc(C(=O)CN2CCC(F)(F)CC2)cc1
inhibition [1]: Active
Activity [18]: Dose-dependent effect
Time [19]: 150 min
Time [20]: 195 min
Time [21]: 113 min
Activity [22]: inactive
Time [23]: 46 min
Activity [24]: Active

pKi [7]: 9.05
pKi [8]: 8.03
Kp at 6 h [15]: < 0.6
SMILES: C[C@@H]1CCCN1CCCOc1ccc(C(=O)CN2CCN(C(=O)c3cccn3C)CC2)cc1

pKi [7]: 8.34
pKi [8]: 7.92
SMILES: CC(C)COC(=O)N1CCN(CC(=O)c2ccc(OCCCN3CCC[C@H]3C)cc2)CC1

pKi [7]: 8.92
pKi [8]: 8.40
SMILES: C[C@@H]1CCCN1CCCOc1ccc(C(=O)CN2CCN(C(=O)c3cc4ccccc4s3)CC2)cc1

pKi [7]: 8.20
pKi [8]: 7.64
SMILES: C[C@@H]1CCCN1CCCOc1ccc(C(=O)CN2CCC(C#N)CC2)cc1

pKi [7]: 8.38
pKi [8]: 8.05
SMILES: C[C@@H]1CCCN1CCCOc1ccc(C(=O)CN2CCN(C(=O)c3cccs3)CC2)cc1

pKi [7]: 8.55
pKi [8]: 7.52
Kp at 6 h [15]: < 0.6
SMILES: CC(=O)N1CCN(CC(=O)c2ccc(OCCCN3CCC[C@H]3C)cc2)CC1

SMILES: C[C@@H]1CCCN1CCCOc1ccc(C(=O)CN2CCN(C(=O)Oc3ccccc3)CC2)cc1
pKi [7]: 8.41
pKi [8]: 8.16

pIC50 [2]: < 4.52
pIC50 [3]: < 4.52
pIC50 [4]: < 4.52
pIC50 [5]: < 4.52
pIC50 [6]: < 4.52
pKi [7]: 8.72
pKi [8]: 7.85
half-life [25]: > 40 min
half-life [26]: > 40 min
half-life [27]: > 40 min
half-life [28]: > 40 min
half-life [9]: 72 min
Vd [10]: 1.4 L/kg
clearance [11]: 14 mL/min/kg
AUC [12]: 689 ng·h/mL
Cmax [13]: 165 ng/mL
bioavailability [14]: 14%
Kp at 6 h [15]: 1.5
Kb [16]: 0.8 nM
pEC50 [17]: 9.00
half-life [31]: > 40 min
SMILES: C[C@@H]1CCCN1CCCOc1ccc(C(=O)CN2CCN(C(=O)c3ccccc3)CC2)cc1
ED50 [29]: 0.43 mg/kg
inhibition [29]: Dose-dependent effect
Activity [30]: 33%

pIC50 [2]: < 4.52
pIC50 [3]: < 4.52
pIC50 [4]: < 4.52
pIC50 [5]: < 4.52
pIC50 [6]: < 4.52
pKi [7]: 8.49
pKi [8]: 7.72
half-life [25]: > 40 min
half-life [26]: > 40 min
half-life [27]: > 40 min
half-life [28]: > 40 min
half-life [9]: 156 min
Vd [10]: 5.4 L/kg
clearance [11]: 24 mL/min/kg
AUC [12]: 619 ng·h/mL
Cmax [13]: 128 ng/mL
bioavailability [14]: 22%
Kp at 6 h [15]: 4.3
Kb [16]: 0.4 nM
pEC50 [17]: 9.05
half-life [31]: > 40 min
SMILES: COC(=O)N1CCN(CC(=O)c2ccc(OCCCN3CCC[C@H]3C)cc2)CC1
ED50 [29]: 0.54 mg/kg
inhibition [29]: Dose-dependent effect
Activity [32]: inactive

SMILES: C[C@@H]1CCCN1CCCOc1ccc(C(=O)CN2CCN(C(=O)Oc3ccc(F)cc3)CC2)cc1
pKi [7]: 8.52
pKi [8]: 8.43

pKi [7]: 8.47
pKi [8]: 7.68
SMILES: C[C@@H]1CCCN1CCCOc1ccc(C(=O)CN2CCC(F)(F)C2)cc1

pKi [7]: 9.22
pKi [8]: 8.24
SMILES: C[C@@H]1CCCN1CCCOc1ccc(C(=O)CN2CCN(C(=O)c3ccc(F)cc3)CC2)cc1

pKi [7]: 8.05
pKi [8]: 7.32
SMILES: C[C@@H]1CCCN1CCCOc1ccc(C(=O)CN2CCCC(F)(F)C2)cc1

inhibition [33]: < 50%
permeability [34]: permeable
inhibition [35]: < 50%
inhibition [36]: < 50%
pIC50 [37]: < 4.52
pIC50 [38]: < 4.52
pIC50 [39]: < 4.52
pIC50 [40]: < 4.52
pIC50 [41]: < 4.52
fraction unbound [43]: > 0.8
fraction unbound [44]: > 0.8
half-life [25]: > 40 min
half-life [26]: > 40 min
half-life [27]: > 40 min
half-life [28]: > 40 min
half-life [9]: 138 min
Vd [10]: 27 L/kg
clearance [11]: 126 mL/min/kg
AUC [12]: 81 ng·h/mL
Cmax [13]: 17 ng/mL
Kp at 6 h [15]: 50
half-life [31]: > 40 min
SMILES: C[C@@H]1CCCN1CCCOc1ccc(C(=O)CN2CCOCC2)cc1
inhibition at 10 µM [42]: 21%

pIC50 [5]: 5.30
pKi [7]: 8.40
pKi [8]: 7.64
half-life [9]: 126 min
Vd [10]: 2.8 L/kg
clearance [11]: 16 mL/min/kg
bioavailability [14]: 33%
Kp at 6 h [15]: 2.4
SMILES: CCOC(=O)N1CCN(CC(=O)c2ccc(OCCCN3CCC[C@H]3C)cc2)CC1

pKi [7]: 8.68
pKi [8]: 7.77
SMILES: C[C@@H]1CCCN1CCCOc1ccc(C(=O)CN2CCN(C(=O)C(F)(F)F)CC2)cc1

pKi [7]: 8.60
pKi [8]: 8.04
SMILES: C[C@@H]1CCCN1CCCOc1ccc(C(=O)CN2CCC(C(F)(F)F)CC2)cc1

pKi [7]: 8.70
pKi [8]: 7.80
Kp at 6 h [15]: < 0.6
SMILES: C[C@@H]1CCCN1CCCOc1ccc(C(=O)CN2CCN(C(=O)c3ccco3)CC2)cc1

pKi [7]: 8.47
pKi [8]: 7.59
Kp at 6 h [15]: < 0.6
SMILES: C[C@@H]1CCCN1CCCOc1ccc(C(=O)CN2CCN(S(C)(=O)=O)CC2)cc1

From ChEMBL document CHEMBL2034887, “Substituted phenoxypropyl-(R)-2-methylpyrrolidine aminomethyl ketones as histamine-3 receptor inverse agonists” (Bioorg Med Chem Lett, 2012)
